≈ marks a conversion by molar mass, not a printed value.

Common to all, as to format: functional
The subject of assay [1] is Shigella flexneri. The assay is described as follows: Antibacterial activity against Shigella flexneri MTCC 1457 assessed as growth inhibition by agar streak dilution method.
In assay [2] the test system is Aspergillus niger. The assay is described as follows: Antifungal activity against Aspergillus niger MTCC 282 assessed as growth inhibition by agar streak dilution method.
Assay [3] concerns Salmonella typhi. Nature of the assay: Antibacterial activity against Salmonella enterica subsp. enterica serovar Typhi MTCC 733 assessed as growth inhibition by agar streak dilution method.
The test system of assay [4] is Proteus vulgaris. Nature of the assay: Antibacterial activity against Proteus vulgaris MTCC 1771 assessed as growth inhibition by agar streak dilution method.
The subject of assay [5] is Mycobacterium tuberculosis. Nature of the assay: Antitubercular activity against Mycobacterium tuberculosis H37Rv assessed as growth inhibition by Lowenstein-Jensen method.
Assay [6] concerns Staphylococcus aureus. The assay is described as follows: Antibacterial activity against Staphylococcus aureus MTCC 96 assessed as growth inhibition by agar streak dilution method.
Assay [7] concerns Mycobacterium tuberculosis. The assay is described as follows: Antitubercular activity against Mycobacterium tuberculosis H37Rv assessed as growth inhibition at MIC by Lowenstein-Jensen method.
The subject of assay [8] is Mycobacterium tuberculosis. Nature of the assay: Antitubercular activity against Mycobacterium tuberculosis H37Rv assessed as growth inhibition by BACTEC MGIT method.
Assay [9] deals with Escherichia coli. Nature of the assay: Antibacterial activity against Escherichia coli MTCC 739 assessed as growth inhibition by agar streak dilution method.
Assay [10] relates to Aspergillus clavatus. Nature of the assay: Antifungal activity against Aspergillus clavatus MTCC 1323 assessed as growth inhibition by agar streak dilution method.
In assay [11] the test system is Aspergillus fumigatus. Nature of the assay: Antifungal activity against Aspergillus fumigatus MTCC 343 assessed as growth inhibition by agar streak dilution method.
Assay [12] deals with Klebsiella pneumoniae. The assay is described as follows: Antibacterial activity against Klebsiella pneumoniae MTCC 109 assessed as growth inhibition by agar streak dilution method.
Assay [13] deals with Bacillus cereus. Nature of the assay: Antibacterial activity against Bacillus cereus MTCC 430 assessed as growth inhibition by agar streak dilution method.
The subject of assay [14] is Candida albicans. Nature of the assay: Antifungal activity against Candida albicans MTCC 183 assessed as growth inhibition by agar streak dilution method.
Assay [15] concerns Pseudomonas aeruginosa. The assay is described as follows: Antibacterial activity against Pseudomonas aeruginosa MTCC 741 assessed as growth inhibition by agar streak dilution method.
The test system of assay [16] is Mycobacterium tuberculosis. Nature of the assay: Antitubercular activity against Mycobacterium tuberculosis H37Rv assessed as growth inhibition at MIC by BACTEC MGIT method.

In the case of `O=C(CSc1nnc(-c2cc3ccccc3oc2=O)o1)Nc1ccc([N+](=O)[O-])cc1`, the MIC came out at 100 µg/mL (≈ 236 µM) in assay [1]; 100 µg/mL (≈ 236 µM) in assay [2]; 100 µg/mL (≈ 236 µM) in assay [3]; 25 µg/mL (≈ 58.9 µM) in assay [4]; 500 µg/mL (≈ 1180 µM) in [5]; 100 µg/mL (≈ 236 µM) in [6]. The MIC in assay [8] was more than 6.25 µg/mL; in [9] it was 50 µg/mL (≈ 118 µM); in assay [10] it was 100 µg/mL (≈ 236 µM); in [11], 50 µg/mL (≈ 118 µM); in [12] it was 100 µg/mL (≈ 236 µM); in [13] it was 100 µg/mL (≈ 236 µM). For the same compound, the MIC in assay [14] is 12.5 µg/mL (≈ 29.5 µM); in assay [15] it was more than 100 µg/mL. Also, the “growth inhibition (GI)” value in [7] is 94%.

Regarding `N#Cc1ccc(NC(=O)CSc2nnc(-c3cc4ccccc4oc3=O)o2)cc1`, the MIC is more than 100 µg/mL in assay [1]; more than 100 µg/mL in [2]; 100 µg/mL (≈ 247 µM) in assay [3]; 100 µg/mL (≈ 247 µM) in [4]; 200 µg/mL (≈ 495 µM) in assay [5]; 6.25 µg/mL (≈ 15.5 µM) in [6]. For the same compound, the MIC was more than 6.25 µg/mL in assay [8]; 50 µg/mL (≈ 124 µM) in [9]; more than 100 µg/mL in assay [10]; more than 100 µg/mL in [11]; 50 µg/mL (≈ 124 µM) in [12]; 100 µg/mL (≈ 247 µM) in assay [13]. Also, the minimal inhibitory concentration (MIC) in [14] was 50 µg/mL (≈ 124 µM); in assay [15], 100 µg/mL (≈ 247 µM). The “growth inhibition (GI)” value in assay [7] came to 95%.

`Cc1ccc(NC(=O)CSc2nnc(-c3cc4ccccc4oc3=O)o2)cc1`: the minimum inhibitory concentration (MIC) in [1] was more than 100 µg/mL; in assay [2], 100 µg/mL (≈ 254 µM); in [3] it was 100 µg/mL (≈ 254 µM); in assay [4], more than 100 µg/mL; in assay [5], 500 µg/mL (≈ 1270 µM); in assay [6] it was 100 µg/mL (≈ 254 µM). For the same compound, the minimum inhibitory concentration (MIC) in assay [8] was more than 6.25 µg/mL; in [9], more than 100 µg/mL; in [10] it was 100 µg/mL (≈ 254 µM); in assay [11] it was more than 100 µg/mL; in [12], more than 100 µg/mL; in assay [13], 50 µg/mL (≈ 127 µM). Besides, the minimum inhibitory concentration (MIC) in assay [14] and in assay [15] was more than 100 µg/mL throughout. The “growth inhibition (GI)” value in assay [7] is reported as 94%.

With `COc1ccc(NC(=O)CSc2nnc(-c3cc4ccccc4oc3=O)o2)cc1`, the MIC came out at 100 µg/mL (≈ 244 µM) in [1]; 100 µg/mL (≈ 244 µM) in assay [2]; 25 µg/mL (≈ 61.1 µM) in [3]; 100 µg/mL (≈ 244 µM) in [4]; 50 µg/mL (≈ 122 µM) in assay [5]; 6.25 µg/mL (≈ 15.3 µM) in [6]. The MIC in assay [8] is more than 6.25 µg/mL; in [9] it was 50 µg/mL (≈ 122 µM); in assay [10], 50 µg/mL (≈ 122 µM); in assay [11], 100 µg/mL (≈ 244 µM); in assay [12] it was 100 µg/mL (≈ 244 µM); in assay [13], 100 µg/mL (≈ 244 µM). The figures for the minimum inhibitory concentration (MIC) in assay [14] and in [15] were 100 µg/mL (≈ 244 µM) and 25 µg/mL (≈ 61.1 µM), respectively. For the same compound, the “growth inhibition (GI)” value in assay [7] was 97%.

Regarding `O=C(CSc1nnc(-c2cc3ccccc3oc2=O)o1)Nc1ccccc1`, the minimal inhibitory concentration (MIC) in assay [1] was more than 100 µg/mL; in [2], more than 100 µg/mL; in assay [3] it was more than 100 µg/mL; in assay [4], more than 100 µg/mL; in assay [5], 500 µg/mL (≈ 1320 µM); in assay [6], more than 100 µg/mL. Moreover, the minimum inhibitory concentration (MIC) was more than 6.25 µg/mL in [8]; 100 µg/mL (≈ 264 µM) in [9]; more than 100 µg/mL in assay [10]; more than 100 µg/mL in [11]; more than 100 µg/mL in assay [12]; 100 µg/mL (≈ 264 µM) in assay [13]. The minimum inhibitory concentration (MIC) in [14] was 100 µg/mL (≈ 264 µM); in assay [15], more than 100 µg/mL. Moreover, in [7], the “growth inhibition (GI)” value was 95%.

For the compound `O=C(CSc1nnc(-c2cc3ccccc3oc2=O)o1)Nc1ccc(Cl)cc1`, the minimum inhibitory concentration (MIC) in assay [1] worked out at 50 µg/mL (≈ 121 µM); in assay [2] it was 25 µg/mL (≈ 60.4 µM); in assay [3], 100 µg/mL (≈ 242 µM); in assay [4] it was 100 µg/mL (≈ 242 µM); in assay [5], 100 µg/mL (≈ 242 µM); in [6], 50 µg/mL (≈ 121 µM). Moreover, the MIC in assay [8] was more than 6.25 µg/mL; in assay [9], 25 µg/mL (≈ 60.4 µM); in assay [10], 100 µg/mL (≈ 242 µM); in assay [11], 25 µg/mL (≈ 60.4 µM); in assay [12] it was 100 µg/mL (≈ 242 µM); in [13], 25 µg/mL (≈ 60.4 µM). The MIC was determined as 50 µg/mL (≈ 121 µM) in [14] and 100 µg/mL (≈ 242 µM) in assay [15]. The “growth inhibition (GI)” value in [7] is 96%.

For the compound `O=C(CSc1nnc(-c2cc3ccccc3oc2=O)o1)Nc1ccc(Br)cc1`, the MIC in assay [1] is 100 µg/mL (≈ 218 µM); in assay [2], 50 µg/mL (≈ 109 µM); in [3] it was 100 µg/mL (≈ 218 µM); in [4] it was 100 µg/mL (≈ 218 µM); in assay [5], 62.5 µg/mL (≈ 136 µM); in [6] it was 50 µg/mL (≈ 109 µM). The MIC is more than 6.25 µg/mL in [8]; 12.5 µg/mL (≈ 27.3 µM) in assay [9]; 100 µg/mL (≈ 218 µM) in [10]; 100 µg/mL (≈ 218 µM) in [11]; 100 µg/mL (≈ 218 µM) in assay [12]; 12.5 µg/mL (≈ 27.3 µM) in assay [13]. The MIC in assay [14] and in assay [15] was 50 µg/mL (≈ 109 µM) in each case. The “growth inhibition (GI)” value in assay [7] was 97%.

`O=C(CSc1nnc(-c2cc3ccccc3oc2=O)o1)Nc1ccc(F)cc1`: the minimal inhibitory concentration (MIC) in assay [1] stood at 50 µg/mL (≈ 126 µM); in [2], 50 µg/mL (≈ 126 µM); in assay [3] it was 50 µg/mL (≈ 126 µM); in assay [4], 100 µg/mL (≈ 252 µM); in [5], 25 µg/mL (≈ 62.9 µM); in assay [6], 12.5 µg/mL (≈ 31.5 µM). In addition, the MIC in assay [8] was more than 6.25 µg/mL; in [9], 50 µg/mL (≈ 126 µM); in assay [10], 100 µg/mL (≈ 252 µM); in assay [11], 50 µg/mL (≈ 126 µM); in assay [12], 100 µg/mL (≈ 252 µM); in assay [13] it was 50 µg/mL (≈ 126 µM). For the same compound, the MIC was 25 µg/mL (≈ 62.9 µM) in assay [14] and 100 µg/mL (≈ 252 µM) in assay [15]. Besides, the “growth inhibition (GI)” value in [7] stood at 99%.

In the case of `O=C(CSc1nnc(-c2cc3ccccc3oc2=O)o1)Nc1ccc(I)cc1`, the MIC was 100 µg/mL (≈ 198 µM) in assay [1]; 100 µg/mL (≈ 198 µM) in [2]; more than 100 µg/mL in assay [3]; 50 µg/mL (≈ 99 µM) in assay [4]; 12.5 µg/mL (≈ 24.7 µM) in assay [5]; 100 µg/mL (≈ 198 µM) in [6]. Besides, the minimum inhibitory concentration (MIC) was more than 6.25 µg/mL in assay [8]; 100 µg/mL (≈ 198 µM) in assay [9]; 100 µg/mL (≈ 198 µM) in assay [10]; 100 µg/mL (≈ 198 µM) in assay [11]; 100 µg/mL (≈ 198 µM) in assay [12]; 100 µg/mL (≈ 198 µM) in [13]. Moreover, the MIC in assay [14] and in assay [15] was 100 µg/mL (≈ 198 µM) throughout. In assay [7], the “growth inhibition (GI)” value came to 99%.

Turning to `CC[C@@H](CO)NCCN[C@@H](CC)CO` [ETHAMBUTOL], the “growth inhibition (GI)” value in assay [16] is on record as 99%. Further, in assay [8], the minimum inhibitory concentration (MIC) stood at 3.12 µg/mL (≈ 15.3 µM).

Take `NNC(=O)c1ccncc1` [ISONIAZID]: the “growth inhibition (GI)” value in assay [16] is on record as 99%. Further, the MIC in [8] is 0.2 µg/mL (≈ 1.46 µM).

As to `NC(=O)c1cnccn1` [PYRAZINAMIDE], in assay [16], the “growth inhibition (GI)” value turned out to be 99%. Further, the minimal inhibitory concentration (MIC) in [8] was determined as 6.25 µg/mL (≈ 50.8 µM).

As to `CO[C@H]1/C=C/O[C@@]2(C)Oc3c(C)c(O)c4c(O)c(c(/C=N/N5CCN(C)CC5)c(O)c4c3C2=O)NC(=O)/C(C)=C\C=C\[C@H](C)[C@H](O)[C@@H](C)[C@@H](O)[C@@H](C)[C@H](OC(C)=O)[C@@H]1C` [RIFAMPIN], the “growth inhibition (GI)” value in assay [16] is on record as 99%. In [8], the MIC came out at 0.25 µg/mL (≈ 0.304 µM).

One may read the MIC as the lowest concentration found to suppress growth.

These data come from ChEMBL document CHEMBL3044664, “Synthesis of coumarin-based 1,3,4-oxadiazol-2ylthio-N-phenyl/benzothiazolyl acetamides as antimicrobial and antituberculosis agents” (2013).
